Laboratory results published in article PMC10458253, “Unraveling the In Vitro Toxicity Profile of Psychedelic 2C Phenethylamines and Their N-Benzylphenethylamine (NBOMe) Analogues” (Pharmaceuticals, 2023).

Legend:
[1] = test system: differentiated SH-SY5Y cells; test: Resazurin reduction cytotoxicity assay, differentiated SH-SY5Y; format: cell-based; conditions: 24 h; for Top (maximal effect): maximum cell death of fitted curve; for EC50: Homo sapiens, cell death curves 0–1500 µM, read-out: EC50 (half-maximum-effect concentration)
Procedure: (§1) SH-SY5Y cells were acquired from the American Type Culture Collection (Manassas, VA, USA). Cells were cultured in 25 cm^2 flasks using DMEM—high glucose supplemented with 10% heat-inactivated FBS, 1% MEM non-essential amino acids and 1% penicillin/streptomycin mixture, and maintained in a 5% CO2–95% air atmosphere, at 37 °C, until 80% confluence. Cells were routinely subcultured using trypsin-EDTA and, to avoid phenotypic alterations, were always used between passages 23 and 29. In all experiments, the cells were seeded at a density of 25,000 cells/cm^2. As previously described, to achieve a dopaminergic neuronal phenotype, the cells were seeded in a complete DMEM medium containing 10 μM retinoic acid and, after 3 days, 80 nM TPA was added to the cultures for another 3 days.
(§2) Neutral red uptake and resazurin reduction assays were performed after exposure of differentiated SH-SY5Y and HepG2 cells to the drugs under study. To obtain a concentration–response curve, a broad concentration range (0–2000 µM) was investigated, and cytotoxicity was evaluated 24 h after exposure in 96-well cell culture plates. As previously described, neutral red uptake assay is based on the incorporation of neutral red dye into the lysosomes of viable cells and the amount of dye incorporated represents the cells’ lysosomal functionality, and resazurin reduction assay is based on the irreversible reduction of resazurin dye to the fluorescent resorufin product by metabolically active cells.
(§3) Briefly, 24 h after being exposed to different concentrations of the compounds, differentiated SH-SY5Y cells were incubated with either neutral red (50 µg/mL) or resazurin (10 µg/mL) solutions for 90 min, at 37 °C, in a 5% CO2–95% air atmosphere. For HepG2 cells, 24 h after the exposure to the tested drugs, the cells were incubated with either neutral red (50 µg/mL) or resazurin (10 µg/mL) solutions for 45 and 60 min, respectively, at 37 °C, in a 5% CO2–95% air atmosphere.
(§4) In the neutral red uptake assay, at the end of the incubation period, the cell culture medium was removed and a solution of absolute ethyl alcohol/distilled water (1:1) with 5% acetic acid was added to extract the dye absorbed only by the viable cells. The absorbance was measured at 540 nm in a multi-well plate reader (PowerWaveX BioTek Instruments, Winooski, VT, USA). In the resazurin assay, at the end of the incubation period, the fluorescence was measured at 530 nm excitation and 590 nm emission wavelengths in a multi-well plate reader (PowerWaveX BioTek Instruments, Winooski, VT, USA).
(§5) The results were expressed as a percentage of control cells. At least four independent experiments were performed, in triplicate. For differentiated SH-SY5Y cells, the neutral red uptake assay was identified as the most sensitive assay and, therefore, used for the subsequent experiments. On the other hand, for HepG2 cells, the resazurin reduction assay was identified as the most sensitive assay and, therefore, used for the subsequent experiments.

[2] = test system: differentiated SH-SY5Y cells; test: Neutral red uptake cytotoxicity assay, differentiated SH-SY5Y; format: cell-based; conditions: 24 h; for Top (maximal effect): maximum cell death of fitted curve; for EC50: Homo sapiens, cell death curves 0–1500 µM, read-out: EC50 (half-maximum-effect concentration)
Procedure: as §1, §2, §3, §4, §5

hMAO-A = biological target: T1, hMAO-A (Homo sapiens, UniProt P21397); test: hMAO-A inhibitory activity assay (kynuramine); format: biochemical; conditions: read-out: % inhibition at 10 µM hMAO-A, kynuramine substrate
T1 construct: purchased Sigma Aldrich; host or cells: insect cells (BTI-TN-5B1-4), recombinant baculovirus
T1 sequence (P21397 1-527): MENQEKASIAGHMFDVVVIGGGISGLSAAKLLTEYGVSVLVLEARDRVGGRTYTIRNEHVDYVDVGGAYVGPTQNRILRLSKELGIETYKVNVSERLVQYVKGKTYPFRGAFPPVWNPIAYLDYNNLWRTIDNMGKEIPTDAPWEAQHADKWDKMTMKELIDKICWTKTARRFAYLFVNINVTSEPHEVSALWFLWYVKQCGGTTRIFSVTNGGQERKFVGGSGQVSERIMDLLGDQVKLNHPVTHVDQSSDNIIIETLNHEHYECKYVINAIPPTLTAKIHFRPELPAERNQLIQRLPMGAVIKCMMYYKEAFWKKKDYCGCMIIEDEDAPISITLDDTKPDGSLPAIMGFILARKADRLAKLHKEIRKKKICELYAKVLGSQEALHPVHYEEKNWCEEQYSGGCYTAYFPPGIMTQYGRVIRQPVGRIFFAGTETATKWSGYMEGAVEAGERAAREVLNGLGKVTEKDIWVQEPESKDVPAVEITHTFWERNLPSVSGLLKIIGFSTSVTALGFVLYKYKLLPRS
Procedure: The hMAO inhibitory activities were assessed in microsomal MAO isoforms, prepared from insect cells (BTI-TN-5B1-4) infected with recombinant baculovirus containing cDNA inserts for hMAO-A or hMAO-B, by measuring the enzymatic conversion rates of kynuramine into 4-hydroxyquinoline. […] All assays were performed in sodium phosphate buffer solution 50 mM pH 7.4.
The percentages of MAO inhibition of each compound were determined from three independent experiments performed in triplicate.

[3] = test system: differentiated SH-SY5Y cells; test: Effect of MAO inhibitors on drug cytotoxicity (neutral red uptake), differentiated SH-SY5Y; format: cell-based; conditions: 24 h; for change of drug cytotoxicity with rasagiline (neutral red uptake): 1 µM rasagiline (MAO-B inhibitor), drug concentrations as given in the source
Procedure: MAO inhibition was used to elucidate the impact of MAO-A and MAO-B in the cytotoxicity of the tested drugs. […] The drugs’ cytotoxicity was then assessed through the neutral red uptake assay and the results were expressed as percentage of control cells. At least four independent experiments were performed, in triplicate.

[4] = CHI on Immobilized Artificial Membrane (IAM) HPLC, Kpcell; format: physicochemical; conditions: partition between internal and external cellular media; estimated from experimental CHI(IAM)
Procedure: The CHI on IAM (CHI (IAM)) values were determined from the experimental tR obtained on the HPLC system with an IAM.PC.DD2 column (100 × 4.6 mm, 10 µm, Regis Technologies, Inc., Morton Grove, IL, USA). […] The Log Kpcell (partition between internal and external cellular media) values were estimated from the drugs’ experimental CHI IAM values using Equations (2) and (3) described elsewhere. Log kIAM = 0.046 CHI(IAM) + 0.42(2) Log Kpcell = 1.1 Log kIAM(3)

[5] = Chromatographic Hydrophobicity Index (CHI) by HPLC, CHILogD7.4; conditions: pH 7.4
Procedure: The CHI values at pH 7.4 were determined using an experimental protocol described elsewhere [23, 25]. The CHI values were assessed from experimental retention times (tR) of the compounds under study and a mixture of reference compounds obtained on the HPLC system with a Luna C18 (2) column (150 × 4.6 mm, 5 µm, Phenomenex, CA, USA). […] Mobile phase A was 10 mM ammonium acetate (pH 7.4) and mobile phase B was acetonitrile. The following gradient program was applied: 0–7 min 0–100% B, 7–15 min 100% B, 15–17 min 100–0% B. The flow was 1 mL/min, and the injection volume was 40 μL.

[6] = PAMPA-BBB permeability assay
From the text: In the present study we used a Parallel Artificial Membrane Permeation Assay (PAMPA) with a membrane mimicking the BBB phospholipidic composition (PAMPA-BBB) to evaluate and predict passive, transcellular permeability of the mescaline-NBOMe, 25B-NBOMe and 25N-NBOMe drugs.
The PiON inc database software was used for data analysis.

[7] = 1 µM clorgyline (MAO-A inhibitor), drug 50-250 µM

With `COc1cc(CCN)c(OC)cc1Br` [2C-B, 4-Bromo-2,5-dimethoxy-β-phenethylamine] the “Bottom (baseline)” value [1] was 7.210, the “Hill Slope” value [1] was 1.670 and the “Top (maximal effect)” value [1] was 83.95. The EC50 [1] was 225 µM, the “Bottom (baseline)” value [2] was 1.900 and the “Hill Slope” value [2] was 1.746. For the same molecule, the “Top (maximal effect)” value [2] was 93.68, the EC50 [2] was 165 µM and the inhibition at 10 µM (hMAO-A) was 17.5%. For the same molecule, the “change of drug cytotoxicity with rasagiline (neutral red uptake)” value [3] was “significantly increased the cytotoxicity”, the Kpcell [4] was 3.08 and the chromatographic logD [5] was 0.7.

In the case of `COc1cc([N+](=O)[O-])c(OC)cc1CCN` [2C-N, 2,5-dimethoxy-4-nitrophenethylamine], the “Bottom (baseline)” value [1] is reported as 4.440, the “Hill Slope” value [1] is reported as 1.627 and the “Top (maximal effect)” value [1] is reported as “≈100”. For the same molecule, the EC50 [1] was 832 µM, the “Bottom (baseline)” value [2] was 6.911 and the “Hill Slope” value [2] was 2.691. The “Top (maximal effect)” value [2] was “≈100”, the EC50 [2] was 733 µM and the inhibition at 10 µM (hMAO-A) was 5.8%. The “change of drug cytotoxicity with rasagiline (neutral red uptake)” value [3] was “significantly increased the cytotoxicity”, the Kpcell [4] was 0.94 and the chromatographic logD [5] was 0.37.

For `COc1cc(CCNCc2ccccc2OC)c(OC)cc1Br` [25B-NBOMe, 4-Bromo-2,5-dimethoxy-N-(2-methoxybenzyl)-β-phenethylamine], the “Bottom (baseline)” value [1] was 6.827, the “Hill Slope” value [1] was 4.464 and the “Top (maximal effect)” value [1] was 80.62. For the same molecule, the EC50 [1] was 58.4 µM, the “Bottom (baseline)” value [2] was 0.0825 and the “Hill Slope” value [2] was 2.687. For the same molecule, the “Top (maximal effect)” value [2] was 87.85, the EC50 [2] was 33.9 µM and the “−Log Pe ± SD” value [6] was 4.4 ± 0.36. For the same molecule, the inhibition at 10 µM (hMAO-A) was 15%, the “change of drug cytotoxicity with rasagiline (neutral red uptake)” value [3] was “significant increase in cell viability” and the Kpcell [4] was 9.08. For the same molecule, the chromatographic logD [5] was 2.32.

With `COc1cc([N+](=O)[O-])c(OC)cc1CCNCc1ccccc1OC` [25N-NBOMe, 4-Nitro-2-dimethoxy-N-(2-methoxybenzyl)-β-phenethylamine] the “Bottom (baseline)” value [1] was 0.9223, the “Hill Slope” value [1] was 4.692 and the “Top (maximal effect)” value [1] was 80.10. For the same molecule, the EC50 [1] was 154 µM, the “Bottom (baseline)” value [2] was 2.841 and the “Hill Slope” value [2] was 5.758. The “Top (maximal effect)” value [2] was 87.38, the EC50 [2] was 125 µM and the “−Log Pe ± SD” value [6] was 4.6 ± 0.34. For the same molecule, the inhibition at 10 µM (hMAO-A) was 8.9%, the “change of drug cytotoxicity with clorgyline (neutral red uptake)” value [3, 7] was “significantly increased the cytotoxicity” and the “change of drug cytotoxicity with rasagiline (neutral red uptake)” value [3] was “significant increase in cell viability”. It also gave a Kpcell [4] of 5.05 and a chromatographic logD [5] of 1.96.

For `COc1cc(CCN)cc(OC)c1OC.Cl` [Mescaline, 3,4,5-Trimethoxyphenethylamine hydrochloride], the “cytotoxic effect (in words)” value ([1]; 0–1500 µM) was “no significant cytotoxic effects”, the inhibition at 10 µM (hMAO-A) was 2.5% and the “change of drug cytotoxicity with clorgyline (neutral red uptake)” value [3, 7] was “significantly increased the cytotoxicity”.

In the case of `COc1ccccc1CNCCc1cc(OC)c(OC)c(OC)c1` [Mescaline-NBOMe, 3,4,5-Trimethoxy-N-(2-methoxybenzyl)-β-phenethylamine], the “Bottom (baseline)” value [1] is reported as 2.774, the “Hill Slope” value [1] is reported as 2.524 and the “Top (maximal effect)” value [1] is reported as 94.72. For the same molecule, the EC50 [1] was 677 µM, the “Bottom (baseline)” value [2] was 1.218 and the “Hill Slope” value [2] was 2.681. The “Top (maximal effect)” value [2] was 98.57, the EC50 [2] was 406 µM and the “−Log Pe ± SD” value [6] was 4.7 ± 0.49. The inhibition at 10 µM (hMAO-A) was 3.9%, the “change of drug cytotoxicity with clorgyline (neutral red uptake)” value [3, 7] was “significantly increased the cytotoxicity” and the “change of drug cytotoxicity with clorgyline (neutral red uptake)” value ([3]; 1 µM clorgyline, 500 µM drug concentration) was “significant increase in cell viability”. For the same molecule, the “change of drug cytotoxicity with rasagiline (neutral red uptake)” value [3] was “significantly increased the cytotoxicity”, the Kpcell [4] was 2.71 and the chromatographic logD [5] was 1.34.
